Like-named read-outs stand apart in the source and are kept apart here.
Legend:
RORγ = RORγ (Homo sapiens, UniProt P51449); experiment: RORγ Gal4 Reporter Gene Assay; format: cell-based
How it was run: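 Cells at 5×10^5/well were transfected with RORγ fragments fused to the GAL4 DNA-binding domain (CMV promoter), a 5×GAL4-site firefly luciferase reporter and CMV-Renilla luciferase for normalization. About 4 h later serum-free MEM and compound were added (vehicle ≤0.1%). Cultures at 37 °C, 5% CO2; at least triplicates.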

[1] = target: RORγ ligand binding domain (LBD) (Homo sapiens (Human), UniProt P51449); experiment: TR-FRET Activity Assay (ligand sensing assay, LANCE); settings: for pIC50 (FRET): TR-FRET, interaction of RORγ-LBD with coactivator peptide
Chain of RORγ ligand binding domain (LBD) (P51449 269-508): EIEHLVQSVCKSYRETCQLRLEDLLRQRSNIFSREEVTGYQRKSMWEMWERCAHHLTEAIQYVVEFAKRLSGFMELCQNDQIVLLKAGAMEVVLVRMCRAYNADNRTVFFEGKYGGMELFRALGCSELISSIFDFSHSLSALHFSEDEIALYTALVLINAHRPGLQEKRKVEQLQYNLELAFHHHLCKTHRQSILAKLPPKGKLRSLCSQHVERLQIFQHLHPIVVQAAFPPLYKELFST

[2] = firefly (FF) luciferase, 293T cells

Chain of RORγ (P51449 whole entry, looked up, the tested form may be a part): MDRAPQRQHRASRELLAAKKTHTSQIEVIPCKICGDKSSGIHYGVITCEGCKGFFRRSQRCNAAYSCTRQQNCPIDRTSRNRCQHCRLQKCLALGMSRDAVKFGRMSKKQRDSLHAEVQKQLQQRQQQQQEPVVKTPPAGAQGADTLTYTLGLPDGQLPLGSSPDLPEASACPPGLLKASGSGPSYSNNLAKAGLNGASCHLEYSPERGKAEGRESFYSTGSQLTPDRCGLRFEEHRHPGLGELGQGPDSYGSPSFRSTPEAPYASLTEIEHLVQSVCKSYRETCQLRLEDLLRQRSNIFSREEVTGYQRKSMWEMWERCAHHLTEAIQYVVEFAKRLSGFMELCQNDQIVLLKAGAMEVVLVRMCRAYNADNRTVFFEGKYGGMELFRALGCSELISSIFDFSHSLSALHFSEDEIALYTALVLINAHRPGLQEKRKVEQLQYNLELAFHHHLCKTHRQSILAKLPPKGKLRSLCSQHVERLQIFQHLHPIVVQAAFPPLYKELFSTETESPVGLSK

Structure (SMILES): CC(C)(C)c1cc(-c2nc(C(N)=O)oc2CC2CCCCC2)cc(C(C)(C)C)c1 [Example 101, 5-(Cyclohexylmethyl)-4-(3,5-di-tert-butylphenyl)oxazole-2-carboxamide]
- IC50 (RORγ; firefly (FF) luciferase, 293T cells, read-out: pIC50 (FF) (converted)): > 20 µM
- IC50 (RORγ; renilla normalised (RENnorm) luciferase, 293T cells, read-out: pIC50 (REN) (converted)): > 20 µM
- pIC50 (FRET) [1]: 6.0

Structure (SMILES): CC(C)(C)c1cc(-c2sc(C(=O)N[C@H]3C[C@H](C(=O)O)C3)nc2CC2CCCCC2)cc(C(C)(C)O)c1 [Example 23, (trans)-3-(5-(3-(tert-Butyl)-5-(2-hydroxypropan-2-yl)phenyl)-4-(cyclohexylmethyl)-thiazole-2-carboxamido)cyclobutanecarboxylic acid]
- pIC50 (FF) (RORγ; [2]): 8.2
- IC50 [1]: 0.631 µM

Structure (SMILES): CC(C)(O)CNC(=O)c1ncc(CC2CCCCC2)c(-c2cc(C(C)(C)C)cc(C(C)(C)C)c2)n1 [Example 207/1]
- pIC50 (FF) (RORγ): 6.0/6.2/6.1
- pIC50 (REN) (RORγ): 6.0/6.2/6.1
- pIC50 (FRET) [1]: 6.0/6.2/6.1

Structure (SMILES): C[C@H](NC(=O)c1cc(-c2sc(C(=O)NCC(C)(C)O)nc2CC2CCCCC2)cc(C2(C)CC2)c1)C(F)(F)F [8/6]
- pIC50 (FF) (RORγ): 7.0/8.2/8.3
- pIC50 (REN) (RORγ): 7.0/8.2/8.3
- pIC50 (FRET) [1]: 7.0/8.2/8.3

Structure (SMILES): CC(C)(C)NS(=O)(=O)c1ccc(-c2sc(C(=O)N3CC4CC(C3)O4)nc2CC2CCCCC2)c(Cl)c1Cl [6/44]
- pIC50 (FF) (RORγ): 7.4/7.8/8.0
- pIC50 (REN) (RORγ): 7.4/7.8/8.0
- pIC50 (FRET) [1]: 7.4/7.8/8.0

Structure (SMILES): CC(C)(C)NS(=O)(=O)c1ccc(-c2sc(C(=O)NCCC(C)(C)C(N)=O)nc2CC2CCCCC2)cc1C(F)(F)F [Example 10, N-(4-Amino-3,3-dimethyl-4-oxobutyl)-5-(4-(N-(tert-butyl)sulfamoyl)-3-(trifluoromethyl)phenyl)-4-(cyclohexylmethyl)thiazole-2-carboxamide]
- pIC50 (FF) (RORγ): 5.9/6.9/7.0
- pIC50 (REN) (RORγ): 5.9/6.9/7.0
- pIC50 (FRET) [1]: 5.9/6.9/7.0

Structure (SMILES): CC(C)(C)NS(=O)(=O)c1ccc(-c2sc(C(=O)NC3CSC3)nc2CC2CCCCC2)c2ccccc12 [6/14]
- pIC50 (FF) (RORγ): 6.8/8.7/8.7
- pIC50 (REN) (RORγ): 6.8/8.7/8.7
- pIC50 (FRET) [1]: 6.8/8.7/8.7

Structure (SMILES): CC1CCCCN1C(=O)c1nc(C(=O)NCC(C)(C)O)sc1-c1ccc(S(=O)(=O)NC(C)(C)C)c2ccccc12 (centres unmarked) [304/7]
- pIC50 (FF) (RORγ): 6.1/7.3/7.3
- pIC50 (REN) (RORγ): 6.1/7.3/7.3
- pIC50 (FRET) [1]: 6.1/7.3/7.3

Structure (SMILES): COC(c1nc(C(=O)N[C@H]2C[C@H](C(=O)O)C2)sc1-c1cc(C(C)(C)C)cc(C2(C)CC2)c1)C1CCCCC1 (some centres unmarked) [19/2]
- pIC50 (FF) (RORγ): 6.1/7.0/7.0
- pIC50 (REN) (RORγ): 6.1/7.0/7.0
- pIC50 (FRET) [1]: 6.1/7.0/7.0

Structure (SMILES): O=C(c1nc(CC2CCCCC2)c(-c2ccc(S(=O)(=O)NC3CS(=O)(=O)C3)c3ccccc23)s1)N1CC2(CCS(=O)(=O)CC2)C1 [14/3]
- pIC50 (FF) (RORγ): 6.6/6.4/6.4
- pIC50 (REN) (RORγ): 6.6/6.4/6.4
- pIC50 (FRET) [1]: 6.6/6.4/6.4

Structure (SMILES): COC(c1nc(C(=O)NC2CCOCC2)sc1-c1cc(C(C)(C)C)cc(C2(C)CC2)c1)C1CCCCC1 (centres unmarked) [19/3]
- pIC50 (FF) (RORγ): 6.8/7.1/7.1
- pIC50 (REN) (RORγ): 6.8/7.1/7.1
- pIC50 (FRET) [1]: 6.8/7.1/7.1

Structure (SMILES): CC(C)(C)NS(=O)(=O)c1ccc(-c2sc(C(=O)NC3CCS(=O)(=O)CC3)nc2CC2CCCCC2)c2ccncc12 [21/13]
- pIC50 (FF) (RORγ): 6.3/7.9/7.9
- pIC50 (REN) (RORγ): 6.3/7.9/7.9
- pIC50 (FRET) [1]: 6.3/7.9/7.9

Structure (SMILES): CC(C)(C)NS(=O)(=O)c1ccc(-c2nc(C(=O)NC3CCS(=O)(=O)CC3)oc2CC2CCCCC2)c2ccccc12 [Example 103, 4-(4-(N-(tert-Butyl)sulfamoyl)naphthalen-1-yl)-5-(cyclohexylmethyl)-N-(1,1-dioxidotetrahydro-2H-thiopyran-4-yl)oxazole-2-carboxamide]
- pIC50 (FF) (RORγ): 6.3/7.2/7.3
- pIC50 (REN) (RORγ): 6.3/7.2/7.3
- pIC50 (FRET) [1]: 6.3/7.2/7.3

Structure (SMILES): CC(C)(C)c1cc(-c2sc(C(=O)NC3CC(C(=O)O)C3)nc2CC2CCCCC2)nc(C2(C)CC2)n1 (centres unmarked) [19/12]
- pIC50 (FF) (RORγ; [2]): 6.8
- pIC50 (REN) (RORγ; renilla normalised (RENnorm) luciferase, 293T cells): 6.7
- pIC50 (FRET) [1]: 6.1

Structure (SMILES): CC(C)(C)NS(=O)(=O)c1ccc(-c2sc(C(=O)NCC3(C(=O)O)CCOCC3)nc2CC2CCCCC2)c(Cl)c1Cl [6/36]
- pIC50 (FF) (RORγ): 6.3/7.4/7.4
- pIC50 (REN) (RORγ): 6.3/7.4/7.4
- pIC50 (FRET) [1]: 6.3/7.4/7.4

— patent publication US10301272B2, “Carboxamide or sulfonamide substituted thiazoles and related derivatives as modulators for the orphan nuclear receptor ROR[γ]” (Phenex Pharmaceuticals AG, priority 2012, dated 2019)
